# Measurements reported in ChEMBL document CHEMBL5316337, “Critical Role of Position 10 Residue in the Polymyxin Antimicrobial Activity” (J Med Chem, 2023).
# Columns and labels:
# Format in all cases: functional
# [1] = system: Acinetobacter baumannii; assay: Antibacterial activity against polymyxin-susceptible Acinetobacter baumannii ATCC 19606 clinical isolates assessed as reduction in bacterial growth by broth microdilution method
# [2] = system: Klebsiella pneumoniae; assay: Antibacterial activity against polymyxin-susceptible Klebsiella pneumoniae ATCC 700721 clinical isolates assessed as reduction in bacterial growth by broth microdilution method
# [3] = system: Acinetobacter baumannii; assay: Antibacterial activity against polymyxin-susceptible Acinetobacter baumannii ATCC 17978 clinical isolates assessed as reduction in bacterial growth by broth microdilution method
# [4] = system: Pseudomonas aeruginosa; assay: Antibacterial activity against polymyxin-susceptible Pseudomonas aeruginosa ATCC 27853 clinical isolates assessed as reduction in bacterial growth by broth microdilution method
# [5] = system: Pseudomonas aeruginosa; assay: Antibacterial activity against polymyxin-susceptible Pseudomonas aeruginosa FADD1-PA025 clinical isolates assessed as reduction in bacterial growth by broth microdilution method
# [6] = system: Enterobacter cloacae; assay: Antibacterial activity against polymyxin-susceptible Enterobacter cloacae FADD1-EC006 clinical isolates assessed as reduction in bacterial growth by broth microdilution method
# [7] = system: Pseudomonas aeruginosa; assay: Antibacterial activity against polymyxin-susceptible Pseudomonas aeruginosa FADD1-PA038 clinical isolates assessed as reduction in bacterial growth by broth microdilution method
# [8] = system: Pseudomonas aeruginosa; assay: Antibacterial activity against Carbapenem-resistant Pseudomonas aeruginosa FADD1-PA022 clinical isolates assessed as reduction in bacterial growth by broth microdilution method
# [9] = system: Enterobacter cloacae; assay: Antibacterial activity against polymyxin-susceptible Enterobacter cloacae FADD1-EC003 clinical isolates assessed as reduction in bacterial growth by broth microdilution method
# [10] = system: Acinetobacter baumannii; assay: Antibacterial activity against Carbapenem-resistant Acinetobacter baumannii FADD1-AB034 clinical isolates assessed as reduction in bacterial growth by broth microdilution method
# [11] = system: Acinetobacter baumannii; assay: Antibacterial activity against Carbapenem-resistant Acinetobacter baumannii FADD1-AB030 clinical isolates assessed as reduction in bacterial growth by broth microdilution method
# [12] = system: Klebsiella pneumoniae; assay: Antibacterial activity against Carbapenem-resistant Klebsiella pneumoniae FADD1-KP065 clinical isolates assessed as reduction in bacterial growth by broth microdilution method
# [13] = system: Klebsiella pneumoniae; assay: Antibacterial activity against Carbapenem-resistant Klebsiella pneumoniae FADD1-KP032 clinical isolates assessed as reduction in bacterial growth by broth microdilution method
# [14] = system: Klebsiella pneumoniae; assay: Antibacterial activity against Carbapenem-resistant Klebsiella pneumoniae BM1 clinical isolates assessed as reduction in bacterial growth by broth microdilution method
# [15] = system: Enterobacter cloacae; assay: Antibacterial activity against polymyxin-susceptible Enterobacter cloacae FADD1-EC001 clinical isolates assessed as reduction in bacterial growth by broth microdilution method
# [16] = system: Klebsiella pneumoniae; assay: Antibacterial activity against Carbapenem-resistant Klebsiella pneumoniae FADD1-KP022 clinical isolates assessed as reduction in bacterial growth by broth microdilution method
# [17] = system: Pseudomonas aeruginosa; assay: Antibacterial activity against Carbapenem-resistant Pseudomonas aeruginosa FADD1-PA001 clinical isolates assessed as reduction in bacterial growth by broth microdilution method
Compound,MIC [1],MIC [2],MIC [3],MIC [4],MIC [5],MIC [6],MIC [7],MIC [8],MIC [9],MIC [10],MIC [11],MIC [12],MIC [13],MIC [14],MIC [15],MIC [16],MIC [17]
CC[C@H](C)CCCCC(=O)N[C@@H](CCN)C(=O)N[C@H](C(=O)N[C@@H](CCN)C(=O)N[C@H]1CCNC(=O)[C@H](CCN)NC(=O)[C@H](CCN)NC(=O)[C@H](CCN)NC(=O)[C@H](CC(C)C)NC(=O)[C@@H](Cc2ccccc2)NC(=O)[C@H](CCN)NC1=O)[C@@H](C)O,16 µg/mL,> 32 µg/mL,16 µg/mL,> 32 µg/mL,> 32 µg/mL,> 32 µg/mL,> 32 µg/mL,> 32 µg/mL,> 32 µg/mL,16 µg/mL,8 µg/mL,4 µg/mL,32 µg/mL,> 32 µg/mL,> 32 µg/mL,2 µg/mL,> 32 µg/mL
CC[C@H](C)CCCCC(=O)N[C@@H](CCN)C(=O)N[C@H](C(=O)N[C@@H](CCN)C(=O)N[C@H]1CCNC(=O)[C@H](CCCNC(=N)N)NC(=O)[C@H](CCN)NC(=O)[C@H](CCN)NC(=O)[C@H](CC(C)C)NC(=O)[C@@H](Cc2ccccc2)NC(=O)[C@H](CCN)NC1=O)[C@@H](C)O,8 µg/mL,32 µg/mL,4 µg/mL,4 µg/mL,8 µg/mL,32 µg/mL,> 32 µg/mL,1 µg/mL,16 µg/mL,4 µg/mL,8 µg/mL,4 µg/mL,32 µg/mL,> 32 µg/mL,32 µg/mL,2 µg/mL,> 32 µg/mL
CC[C@H](C)CCCCC(=O)N[C@@H](CCN)C(=O)N[C@H](C(=O)N[C@@H](CCN)C(=O)N[C@H]1CCNC(=O)[C@H](CCCN)NC(=O)[C@H](CCN)NC(=O)[C@H](CCN)NC(=O)[C@H](CC(C)C)NC(=O)[C@@H](Cc2ccccc2)NC(=O)[C@H](CCN)NC1=O)[C@@H](C)O,16 µg/mL,32 µg/mL,4 µg/mL,> 32 µg/mL,> 32 µg/mL,> 32 µg/mL,> 32 µg/mL,> 32 µg/mL,32 µg/mL,8 µg/mL,16 µg/mL,4 µg/mL,32 µg/mL,> 32 µg/mL,32 µg/mL,4 µg/mL,> 32 µg/mL
CC[C@H](C)CCCCC(=O)N[C@@H](CCN)C(=O)N[C@H](C(=O)N[C@@H](CCN)C(=O)N[C@H]1CCNC(=O)[C@H](CN)NC(=O)[C@H](CCN)NC(=O)[C@H](CCN)NC(=O)[C@H](CC(C)C)NC(=O)[C@@H](Cc2ccccc2)NC(=O)[C@H](CCN)NC1=O)[C@@H](C)O,2 µg/mL,> 32 µg/mL,1 µg/mL,4 µg/mL,2 µg/mL,16 µg/mL,4 µg/mL,0.5 µg/mL,4 µg/mL,1 µg/mL,2 µg/mL,1 µg/mL,2 µg/mL,4 µg/mL,2 µg/mL,1 µg/mL,2 µg/mL
CC[C@H](C)CCCCC(=O)N[C@@H](CCN)C(=O)N[C@H](C(=O)N[C@@H](CCN)C(=O)N[C@H]1CCNC(=O)[C@H](Cc2c[nH]cn2)NC(=O)[C@H](CCN)NC(=O)[C@H](CCN)NC(=O)[C@H](CC(C)C)NC(=O)[C@@H](Cc2ccccc2)NC(=O)[C@H](CCN)NC1=O)[C@@H](C)O,16 µg/mL,32 µg/mL,4 µg/mL,8 µg/mL,8 µg/mL,> 32 µg/mL,16 µg/mL,1 µg/mL,16 µg/mL,16 µg/mL,> 32 µg/mL,16 µg/mL,16 µg/mL,> 32 µg/mL,32 µg/mL,8 µg/mL,32 µg/mL
CC[C@H](C)CCCCC(=O)N[C@@H](CCN)C(=O)N[C@H](C(=O)N[C@@H](CCN)C(=O)N[C@H]1CCNC(=O)[C@H](Cc2ccccc2)NC(=O)[C@H](CCN)NC(=O)[C@H](CCN)NC(=O)[C@H](CC(C)C)NC(=O)[C@@H](Cc2ccccc2)NC(=O)[C@H](CCN)NC1=O)[C@@H](C)O,2 µg/mL,2 µg/mL,2 µg/mL,1 µg/mL,2 µg/mL,4 µg/mL,4 µg/mL,1 µg/mL,4 µg/mL,2 µg/mL,0.5 µg/mL,1 µg/mL,1 µg/mL,2 µg/mL,4 µg/mL,1 µg/mL,1 µg/mL
